Measurements published in PubChem BioAssay (NCI).
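Each compound was tested at five concentrations against cells in 96-well plates for 48 hours. At the GI50, growth is halved. Definition used: TGI = concentration required for complete inhibition of growth.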

How the values were obtained:
Test in all cases: NCI anticancer screen, dose series, 48 h
[1] = system: 786-0 renal
[2] = system: A549 NSCLC
[3] = system: ACHN renal
[4] = system: CAKI-1 renal
[5] = system: CCRF-CEM leukemia
[6] = system: COLO 205 colon
[7] = system: DLD-1 colon
[8] = system: DMS 114 small cell lung
[9] = system: DMS 273 small cell lung
[10] = system: EKVX NSCLC
[11] = system: HCC-2998 colon
[12] = system: HCT-116 colon
[13] = system: HCT-15 colon
[14] = system: HL-60(TB) leukemia
[15] = system: HOP-18 NSCLC
[16] = system: HOP-62 NSCLC
[17] = system: HOP-92 NSCLC
[18] = system: HT29 colon
[19] = system: IGROV1 ovarian
[20] = system: K-562 leukemia
[21] = system: KM12 colon
[22] = system: KM20L2 colon
[23] = system: LOX IMVI melanoma
[24] = system: LXFL 529 NSCLC
[25] = system: M14 melanoma
[26] = system: MALME-3M melanoma
[27] = system: MOLT-4 leukemia
[28] = system: NCI-H226 lung
[29] = system: NCI-H23 lung
[30] = system: NCI-H460 lung
[31] = system: NCI-H522 lung
[32] = system: OVCAR-3 ovarian
[33] = system: OVCAR-4 ovarian
[34] = system: OVCAR-5 ovarian
[35] = system: OVCAR-8 ovarian
[36] = system: RPMI-8226 leukemia
[37] = system: RXF 393 renal
[38] = system: RXF-631 renal
[39] = system: SF-268 CNS
[40] = system: SF-295 CNS
[41] = system: SF-539 CNS
[42] = system: SK-MEL-2 melanoma
[43] = system: SK-MEL-28 melanoma
[44] = system: SK-MEL-5 melanoma
[45] = system: SK-OV-3 ovarian
[46] = system: SN12C renal
[47] = system: SNB-19 CNS
[48] = system: SNB-75 CNS
[49] = system: SNB-78 CNS
[50] = system: SR leukemia
[51] = system: SW-620 colon
[52] = system: TK-10 renal
[53] = system: U251 CNS
[54] = system: UACC-257 melanoma
[55] = system: UACC-62 melanoma
[56] = system: UO-31 renal
[57] = system: XF 498 CNS

c1cc[c]([Sn][c]2ccccc2)cc1
GI50 [1]: 17.4 µM | TGI [1]: 31.6 µM | GI50 [2]: 21.5 µM | TGI [2]: 51.5 µM | GI50 [3]: 27.2 µM | TGI [3]: 69.8 µM | GI50 [4]: 24 µM | TGI [4]: > 92.3 µM | GI50 [5]: 21.9 µM | TGI [5]: 62.7 µM | GI50 [6]: 24.3 µM | TGI [6]: 59.4 µM | GI50 [7]: 15.4 µM | TGI [7]: 23.2 µM | GI50 [8]: 32.7 µM | TGI [8]: > 100 µM | GI50 [9]: 16.8 µM | TGI [9]: 35.9 µM | GI50 [10]: 28.3 µM | TGI [10]: > 61.2 µM | GI50 [11]: 13.8 µM | TGI [11]: 18.3 µM | GI50 [12]: 18.2 µM | TGI [12]: 37.7 µM | GI50 [13]: 20.5 µM | TGI [13]: 41 µM | GI50 [14]: 20.5 µM | TGI [14]: 41.9 µM | GI50 [15]: 21.6 µM | TGI [15]: 48.8 µM | GI50 [16]: 53.1 µM | TGI [16]: > 100 µM | GI50 [17]: 19 µM | TGI [17]: 47.5 µM | GI50 [18]: 20.2 µM | TGI [18]: 37 µM | GI50 [19]: 38.9 µM | TGI [19]: > 100 µM | GI50 [20]: 25.2 µM | TGI [20]: 69 µM | GI50 [21]: 13.6 µM | TGI [21]: 19.2 µM | GI50 [22]: 13.4 µM | TGI [22]: 18.8 µM | GI50 [23]: 20.6 µM | TGI [23]: 42 µM | GI50 [24]: 16.8 µM | TGI [24]: 33.6 µM | GI50 [25]: 24.4 µM | TGI [25]: 56.7 µM | GI50 [26]: 23.2 µM | TGI [26]: 47.7 µM | GI50 [27]: 19.2 µM | TGI [27]: 60.3 µM | GI50 [28]: 21.8 µM | TGI [28]: 54.8 µM | GI50 [29]: 15 µM | TGI [29]: 23.3 µM | GI50 [30]: 14 µM | TGI [30]: 20.2 µM | GI50 [31]: 14.1 µM | TGI [31]: 32.7 µM | GI50 [32]: 17.8 µM | TGI [32]: 35 µM | GI50 [33]: 24 µM | TGI [33]: 55.2 µM | GI50 [34]: 15 µM | TGI [34]: > 57.5 µM | GI50 [35]: 24 µM | TGI [35]: 58.8 µM | GI50 [36]: 19.8 µM | TGI [36]: 49.2 µM | GI50 [37]: 12.4 µM | TGI [37]: 36.5 µM | GI50 [38]: 35.6 µM | TGI [38]: > 100 µM | GI50 [39]: 14.5 µM | TGI [39]: 25 µM | GI50 [40]: 27.8 µM | TGI [40]: 69.7 µM | GI50 [41]: 23.3 µM | TGI [41]: 45.5 µM | GI50 [42]: 15.9 µM | TGI [42]: 37.7 µM | GI50 [43]: 14.5 µM | TGI [43]: 36 µM | GI50 [44]: 16.8 µM | TGI [44]: 31.9 µM | GI50 [45]: 26.4 µM | TGI [45]: 90.9 µM | GI50 [46]: 20 µM | TGI [46]: 42.1 µM | GI50 [47]: 20 µM | TGI [47]: 61 µM | GI50 [48]: 30.2 µM | TGI [48]: > 100 µM | GI50 [49]: 39.8 µM | TGI [49]: > 100 µM | GI50 [50]: 18.6 µM | TGI [50]: 45.3 µM | GI50 [51]: 21.6 µM | TGI [51]: 45 µM | GI50 [52]: 20.1 µM | TGI [52]: 51.2 µM | GI50 [53]: 19.4 µM | TGI [53]: 42 µM | GI50 [54]: 29.6 µM | TGI [54]: > 72.9 µM | GI50 [55]: 21 µM | TGI [55]: 47 µM | GI50 [56]: 19.4 µM | TGI [56]: 38.5 µM | GI50 [57]: 13.3 µM | TGI [57]: 17.9 µM
